According to US20050026223A1, “Method and compositions for increasing bone mass” (The Board of Trustees of the University of Arkansas, priority 1999, published 2005):

Assays:
[1] = test system: osteoblastic cells derived from murine calvaria; experiment: Etoposide-induced apoptosis of osteoblastic cells derived from murine calvaria (trypan blue uptake); type: cell-based
Description: Osteoblastic cells derived from murine calvaria were pretreated with the sterols for 1 hour before the addition of the pro-apoptotic agent, etoposide. Apoptosis was determined after 6 hours by trypan blue uptake (Jilka et al, J. Bone and Min. Res. 13:793:802, 1998). * indicates p<0.05 versus etoposide alone, by analysis of variance (ANOVA) (Student-Newman-Keuls method).
Osteoblastic cells derived from murine calvaria were pretreated for 1 hour with the pure receptor antagonist ICI182,780 (10^−7 M) before the addition of the test agents (10^−8 M). Apoptosis was induced and quantified as described in FIG. 3. * indicates p<0.05 versus etoposide alone, by ANOVA (Student-Newman-Keuls method).
In this experiment, osteoblastic cells were derived from murine calvaria and were pretreated with the sterols for 1 hour before the addition of the pro-apoptotic agent, etoposide.
In these experiments, cells were pretreated with the indicated concentrations of the various compounds for 1 hour, in the absence or presence of the androgen receptor antagonist flutamide, before the addition of the proapoptotic agent etoposide. Apoptosis was determined after 6 hours by trypan blue uptake as described in FIG. 3.

[2] = test system: MLO-Y4 osteocytic cells; experiment: Etoposide-induced apoptosis of MLO-Y4 osteocytic cells (trypan blue uptake); type: cell-based, murine
Description: Cells were pretreated with the indicated concentrations of the compounds for 1 hour before the addition of the pro-apoptotic agent etoposide. Apoptosis was determined after 6 hour by trypan blue uptake as described in FIG. 3. * indicates p<0.05 versus etoposide alone, by ANOVA (Student-Newman-Keuls method).
MLO-Y4 cells were pretreated for 1 hour with the pure receptor antagonist ICI182,780 (10^−7 M) before the addition of the test agents (10^−8 M). Apoptosis was induced and quantified as described in FIG. 3. * indicates p<0.05 versus etoposide alone, by ANOVA (Student-Newman-Keuls method).
In this experiment, MLO-Y4 cells were pretreated with the indicated concentrations of the various compounds for 1 h before the addition of the pro-apoptotic agent, etoposide. Apoptosis was determined after 6 h by trypan blue uptake as described in FIG. 3.

[3] = test system: extracellular signal regulated kinases (ERKs) 1 and 2; experiment: Western blot of phosphorylated ERK1/2 in MLO-Y4 osteocytic cells; type: cell-based, murine
Description: (§1) MLO-Y4 osteocytic cells were incubated for 25 minutes in serum-free medium. […] Cell lysates were prepared and proteins were separated by electrophoresis in polyacrylamide gels and transferred to PVDF membranes. Western blotting was performed using a specific antibody recognizing phosphorylated ERKs 1 and 2, followed by reblotting with an antibody recognizing total ERKs. Blots were developed by enhanced chemiluminescence.
as §1, with “MLO-Y4” for “MLO-Y4 osteocytic”, “medium in the presence or absence of 50 μM PD98059.” for “medium.”
as §1, with “In this experiment, MLO-Y4” for “MLO-Y4”, “extracellular signal regulated kinases” for “ERKs”, “extracellular signal regulated kinases.” for “ERKs.”, “chemiluminescence. […] This effect is too rapid to be accounted for by the classical mechanism of estrogen action.” for “chemiluminescence.”
as §1, with “In this experiment, MLO-Y4” for “MLO-Y4”, “medium in the presence or absence of 50 μM PD98059.” for “medium.”, “extracellular signal regulated kinases” for “ERKs”, “extracellular signal regulated kinases.” for “ERKs.”

[4] = Vertebral compression strength of fifth lumbar vertebrae (L5); type: in vivo, mice; details: 2000 ng/g body weight for 28 days, mean
Description: In a representative experiment of this sort, seven 4-5 month old female mice per group are screened twice for BMD in a four week period immediately prior to the initiation of the experiment to establish that peak adult bone mass has been attained. A subset of mice are then ovariectomized. Intact and ovariectomized mice are treated with vehicle, or 20, 200 or 2000 ng/g body weight estratriene-3-ol or another ANGEL compound. […] Ultimate load bearing properties of the fifth lumbar murine vertebrae (L5) is determined. This is done using a servohydraulic axial-torsional material testing machine (Model MTS 810 Bionx; MTS Systems Corp., Eden Prairie, Minn.) and a Lebow load cell (Eaton Products, Troy, Mich.). Data are recorded and analyzed using the LabVIEW software package and an acquisition/signal conditioning board (Model NB-MIO-16, National Instruments Corporation, Austin, Tex.). The L5 specimens that is used for ultimate load bearing is cleaned of surrounding soft tissue and the length and diameter recorded with a digital caliper at a resolution of 0.01 mm (Mitutoyo Model #500-196, Ace Tools, Ft. Smith, Ark.). […] Vertebrae are individually compressed between parallel loading platens along the cephalocaudad axis until failure and the ultimate load (in Newtons) and displacement (in mm) are recorded. […]

C[C@@]12CCC[C@H]1[C@@H]1CCc3cc(O)ccc3[C@H]1CC2 [estratriene-3-ol]
Inhibition of etoposide-induced osteoblast apoptosis ([1]; 1 hour pretreatment before etoposide): inhibition of etoposide-induced osteoblastic cell apoptosis was demonstrated
Anti-apoptotic effect on osteoblastic cells after ICI182,780 ([1]; compound 10^−8 M, 1 h pretreatment with ICI182,780 10^−7 M): abrogated
Inhibition of etoposide-induced apoptosis of osteocytic cell line ([2]; 1 h pretreatment before etoposide, trypan blue after 6 h): dose-dependently inhibited
Antiapoptotic effect on osteocytes after ICI182,780 ([2]; 1 h pretreatment with ICI182,780 10^−7 M): abrogated
Activation of ERKs (phosphorylated fraction of ERK1/2) ([3]; 10^−8 M, 5, 15 or 30 minutes): activated
Ability to activate ERKs in the presence of PD98059 ([3]; compound 10^−8 M, 5 minutes, 50 μM PD98059): abrogated
Vertebral Compression ([4]; Ovx mice, p < 0.00001): 85.57 ± 10.17 Newtons
Vertebral Compression ([4]; intact mice, p < 0.006): 96.26 ± 15.92 Newtons
